Data: article PMC7880554 (ACS chemical biology, 2016)

Biological target: Culp1 (Rv1984c) (Mycobacterium tuberculosis, UniProt P9WP43)
Details: band identified by mass spectrometry; transposon mutant control

Chain of Culp1 (Rv1984c) (P9WP43 33-217): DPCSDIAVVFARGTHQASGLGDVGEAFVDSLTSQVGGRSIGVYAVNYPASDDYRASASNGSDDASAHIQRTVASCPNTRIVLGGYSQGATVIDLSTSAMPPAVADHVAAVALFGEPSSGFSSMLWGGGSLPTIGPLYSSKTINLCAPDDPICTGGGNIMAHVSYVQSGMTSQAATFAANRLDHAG

Question: `CCCCCCCC(=O)OCOc1ccc2c(c1)C(C)(C)C1=C(Cl)C(=O)C(Cl)=CC1=N2` [DDAO-7-OME] was tested. Which “in-gel fluorogenic activity, native PAGE-resolved lysate” value did it give?
Answer: DDAO-7-OME provided the clearest Mtb banding patterns in these complex lysates and revealed Culp1 activity
